Values of other authors in paper PMC2920223 (Analytical chemistry, 2010).

Legend:
[1] = exogenous YGGFM, rat striatal slices
[2] = test system: puromycin-sensitive aminopeptidases (PSA, NAP and NAP2); settings: at 20 μM puromycin
[3] = test system: aminopeptidases (aminopeptidase N (APN), puromycin-sensitive aminopeptidase (PSA), NAP and NAP2); settings: rat

Compound: YGGFM
- hydrolysis at Tyr-Gly as share of the total hydrolysis [1]: about 80%

Compound: COc1ccc(C[C@H](N)C(=O)N[C@H]2[C@@H](O)[C@H](n3cnc4c(N(C)C)ncnc43)O[C@@H]2CO)cc1 [puromycin]
- inhibition of puromycin-sensitive aminopeptidases [2]: effectively inhibited

Compound: YGGFL
- cleaved bond [3]: tyrosine-Gly
